Measurements taken from PMC12860872, “Preclinical evaluation of DOTAGA.Glu.(FAPI)2 and DO3A.Glu.(FAPI)2 as theranostics with human dosimetry extrapolation to lutetium-177 and terbium-161 analogs” (European Journal of Nuclear Medicine and Molecular Imaging, 2025).
Several values for one entry are separate records, joined by “and”; a condition that tells them apart may be missing. Equal values may be shown once.

Columns and labels:
[1] = Blood clearance kinetics in healthy mice; format: in vivo, mouse; settings: i.v., Two-Phase Decay Model
Procedure: Blood samples were collected from the facial vein at 1, 3, 5, 7, 10, 15, 20, 30, 45, 60, 240, and 1440 min p.i., weighed, and measured for radioactivity using a γ-counter. Results were expressed as % I.A./g of blood and plotted over time. The initial and terminal half-lives were determined using Two-Phase Decay Model. The biological half-lives of selected organs were calculated from the biodistribution data using One-Phase Decay Model (GraphPad Prism 8).

PC3-mice = experiment: Biodistribution in PC3-mice incl. blocking; format: in vivo, mouse; settings: PC3-mice
Procedure: Male athymic Balb/C nude mice (6 weeks/20–25 g) were implanted with PC3 cells (3.5 × 10^6/100 µL PBS) into their right shoulder to develop tumors. The animals were used for biodistribution and PET/SPECT/CT imaging studies, once tumors reached 250–300 mm^3.
All mice were euthanized with intraperitoneal injection of pentobarbital (150 mg/kg), and selected organs were dissected, weighed, and measured for radioactivity using a gamma-counter. Results are expressed as % injected activity per gram tissue (% I.A./g), presented as mean ± SD (n = 3–4).

[2] = Blocking 4h (20 nmol unlabeled precursor)

Blood half life (initial) [1]: 1.3 min
Blood half life (terminal) [1]: 4.172 h and 4.17 h
Uptake in Adrenal (PC3-mice; 4 h p.i.): 3.7±1 %I.A./g
Uptake in Blood (PC3-mice; 4 h p.i.): 2.3±0.3 %I.A./g
Uptake in Bone (PC3-mice; 4 h p.i.): 5.2±0.2 %I.A./g
Uptake in Heart (PC3-mice; 4 h p.i.): 1.2±0.5 %I.A./g
Uptake in Intestine (PC3-mice; 4 h p.i.): 0.9±0.4 %I.A./g
Uptake in Kidney (PC3-mice; 4 h p.i.): 1.5±0.4 %I.A./g
Uptake in Liver (PC3-mice; 4 h p.i.): 1.7±0.1 %I.A./g
Uptake in Lung (PC3-mice; 4 h p.i.): 1.6±0.02 %I.A./g
Uptake in Muscle (PC3-mice; 4 h p.i.): 1.9±0.3 %I.A./g
Uptake in Pancreas (PC3-mice; 4 h p.i.): 2.3±0.4 %I.A./g
Uptake in Salivary glands (PC3-mice; 4 h p.i.): 8.2±1.3 %I.A./g
Uptake in Spleen (PC3-mice; 4 h p.i.): 1.2±0.1 %I.A./g
Uptake in Stomach (PC3-mice; 4 h p.i.): 0.9±0.2 %I.A./g
Uptake in Tumor (PC3-mice; 4 h p.i.): 15±1.3 %I.A./g
Uptake in Adrenal (PC3-mice; 24 h p.i.): 1.5±0.2 %I.A./g
Uptake in Blood (PC3-mice; 24 h p.i.): 0.9±0.1 %I.A./g
Uptake in Bone (PC3-mice; 24 h p.i.): 2±0.1 %I.A./g
Uptake in Gallbladder (PC3-mice; 24 h p.i.): 1.3±0.03 %I.A./g
Uptake in Heart (PC3-mice; 24 h p.i.): 0.4±0.03 %I.A./g
Uptake in Intestine (PC3-mice; 24 h p.i.): 0.4±0.1 %I.A./g
Uptake in Kidney (PC3-mice; 24 h p.i.): 0.9±0.1 %I.A./g
Uptake in Liver (PC3-mice; 24 h p.i.): 1.7±0.2 %I.A./g
Uptake in Lung (PC3-mice; 24 h p.i.): 0.6±0.03 %I.A./g
Uptake in Muscle (PC3-mice; 24 h p.i.): 1±0.1 %I.A./g
Uptake in Pancreas (PC3-mice; 24 h p.i.): 1±0.05 %I.A./g
Uptake in Salivary glands (PC3-mice; 24 h p.i.): 3.9±0.3 %I.A./g
Uptake in Spleen (PC3-mice; 24 h p.i.): 0.8±0.05 %I.A./g
Uptake in Stomach (PC3-mice; 24 h p.i.): 0.4±0.03 %I.A./g
Uptake in Tumor (PC3-mice; 24 h p.i.): 7.5±1.2 %I.A./g
Uptake in Adrenal (PC3-mice; 48 h p.i.): 1.1±0.5 %I.A./g
Uptake in Blood (PC3-mice; 48 h p.i.): 0.2±0.03 %I.A./g
Uptake in Bone (PC3-mice; 48 h p.i.): 1±0.1 %I.A./g
Uptake in Gallbladder (PC3-mice; 48 h p.i.): 0.6±0.1 %I.A./g
Uptake in Heart (PC3-mice; 48 h p.i.): 0.1±0.01 %I.A./g
Uptake in Intestine (PC3-mice; 48 h p.i.): 0.1±0.04 %I.A./g
Uptake in Kidney (PC3-mice; 48 h p.i.): 0.4±0.1 %I.A./g
Uptake in Liver (PC3-mice; 48 h p.i.): 1.1±0.2 %I.A./g
Uptake in Lung (PC3-mice; 48 h p.i.): 0.2±0.1 %I.A./g
Uptake in Muscle (PC3-mice; 48 h p.i.): 0.4±0.04 %I.A./g
Uptake in Pancreas (PC3-mice; 48 h p.i.): 0.3±0.01 %I.A./g
Uptake in Salivary glands (PC3-mice; 48 h p.i.): 1.1±0.3 %I.A./g
Uptake in Spleen (PC3-mice; 48 h p.i.): 0.5±0.05 %I.A./g
Uptake in Stomach (PC3-mice; 48 h p.i.): 0.2±0.05 %I.A./g
Uptake in Tumor (PC3-mice; 48 h p.i.): 3.1 ± 0.5 %I.A./g
Uptake in Adrenal (PC3-mice; 72 h p.i.): 0.3±0.1 %I.A./g
Uptake in Blood (PC3-mice; 72 h p.i.): 0.06±0 %I.A./g
Uptake in Bone (PC3-mice; 72 h p.i.): 0.4±0.005 %I.A./g
Uptake in Gallbladder (PC3-mice; 72 h p.i.): 0.4±0.2 %I.A./g
Uptake in Heart (PC3-mice; 72 h p.i.): 0.04±0.01 %I.A./g
Uptake in Intestine (PC3-mice; 72 h p.i.): 0.05±0.01 %I.A./g
Uptake in Kidney (PC3-mice; 72 h p.i.): 0.2±0.02 %I.A./g
Uptake in Liver (PC3-mice; 72 h p.i.): 0.8±0.1 %I.A./g
Uptake in Lung (PC3-mice; 72 h p.i.): 0.1±0.01 %I.A./g
Uptake in Muscle (PC3-mice; 72 h p.i.): 0.1±0.01 %I.A./g
Uptake in Pancreas (PC3-mice; 72 h p.i.): 0.1±0.02 %I.A./g
Uptake in Salivary glands (PC3-mice; 72 h p.i.): 0.3±0.1 %I.A./g
Uptake in Spleen (PC3-mice; 72 h p.i.): 0.3±0.04 %I.A./g
Uptake in Stomach (PC3-mice; 72 h p.i.): 0.05±0 %I.A./g
Uptake in Tumor (PC3-mice; 72 h p.i.): 1.4±0.1 %I.A./g
Uptake in Adrenal (PC3-mice; 96 h p.i.): 0.2±0.1 %I.A./g
Uptake in Blood (PC3-mice; 96 h p.i.): 0.02±0.01 %I.A./g
Uptake in Bone (PC3-mice; 96 h p.i.): 0.3±0.1 %I.A./g
Uptake in Gallbladder (PC3-mice; 96 h p.i.): 0.1±0.02 %I.A./g
Uptake in Heart (PC3-mice; 96 h p.i.): 0.02±0.01 %I.A./g
Uptake in Intestine (PC3-mice; 96 h p.i.): 0.02±0.01 %I.A./g
Uptake in Kidney (PC3-mice; 96 h p.i.): 0.1±0.01 %I.A./g
Uptake in Liver (PC3-mice; 96 h p.i.): 0.7±0.1 %I.A./g
Uptake in Lung (PC3-mice; 96 h p.i.): 0.1±0.1 %I.A./g
Uptake in Muscle (PC3-mice; 96 h p.i.): 0.04±0 %I.A./g
Uptake in Pancreas (PC3-mice; 96 h p.i.): 0.03±0.01 %I.A./g
Uptake in Salivary glands (PC3-mice; 96 h p.i.): 0.1±0.03 %I.A./g
Uptake in Spleen (PC3-mice; 96 h p.i.): 0.4±0.05 %I.A./g
Uptake in Stomach (PC3-mice; 96 h p.i.): 0.03±0.01 %I.A./g
Uptake in Tumor (PC3-mice; 96 h p.i.): 1±0.03 %I.A./g
Uptake in Adrenal (PC3-mice; [2]): 0.3±0.04 %I.A./g
Uptake in Blood (PC3-mice; [2]): 0.2±0.04 %I.A./g
Uptake in Bone (PC3-mice; [2]): 0.4±0.1 %I.A./g
Uptake in Heart (PC3-mice; [2]): 0.1±0.01 %I.A./g
Uptake in Intestine (PC3-mice; [2]): 0.4±0.02 %I.A./g
Uptake in Kidney (PC3-mice; [2]): 2.8±0.2 %I.A./g
Uptake in Liver (PC3-mice; [2]): 1.1±0.01 %I.A./g
Uptake in Lung (PC3-mice; [2]): 0.5±0.1 %I.A./g
Uptake in Muscle (PC3-mice; [2]): 0.1±0.01 %I.A./g
Uptake in Pancreas (PC3-mice; [2]): 0.1±0.01 %I.A./g
Uptake in Salivary glands (PC3-mice; [2]): 0.3±0.01 %I.A./g
Uptake in Spleen (PC3-mice; [2]): 0.4±0.03 %I.A./g
Uptake in Stomach (PC3-mice; [2]): 0.2±0.1 %I.A./g
Uptake in Tumor (PC3-mice; [2]): 1.1±0.4 %I.A./g
tumor uptake (PC3-mice; at 1 h p.i. as printed): ~ 15 %I.A./g
drop of tumor uptake (washed-out) (PC3-mice; at 24 h vs 4 h p.i.): ~ 50%
Compound: N#C[C@@H]1CC(F)(F)CN1C(=O)CNC(=O)c1ccnc2ccc(OCCCCNC(=O)CC[C@H](NC(=O)CN3CCN(CC(=O)[O-])CCN(CC(=O)[O-])CCN(CC(=O)[O-])CC3)C(=O)NCCCCOc3ccc4nccc(C(=O)NCC(=O)N5CC(F)(F)C[C@H]5C#N)c4c3)cc12.[177Lu+3] [[^177Lu]Lu-DO3A.Glu.(FAPI)2]
